Assay results from the METLIN SMRT retention time set (Domingo-Almenara et al. 2019).

Test: gradient 5% acetonitrile 3 min, to 50% in 2 min, to 85% in 15 min, held 3 min, 100 µL/min
Settings: column: Zorbax Extend-C18 2.1 x 50 mm; eluents: water / acetonitrile, 0.1% formic acid
Summary of the method: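 The mobile phases were water and acetonitrile, each with 0.1% formic acid, pumped at 100 μL/min through a Zorbax Extend-C18 column (2.1 × 50 mm, 1.8 μm). Pure standards were injected as mixtures of ~100 molecules and detected by a quadrupole time-of-flight mass spectrometer in positive and negative ionization mode. Retention time came from computationally picked adduct peaks, each inspected by hand.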

| Structure (SMILES) | RP-LC retention time [s] |
| --- | --- |
| Cc1cc(-c2nnc(-c3ccccc3)o2)c(C)n1CC(=O)NCc1ccc(F)cc1F | 934 |
| COc1cccc(C(=O)NC2(C(F)(F)F)C(=O)N(C3CCCCC3)C(C)=C2C(C)=O)c1 (centres undefined) | 987 |
| Cc1ccn2cc(C(=O)NCc3ccc4c(c3)OCO4)nc2c1 | 679 |
| Cc1nc2cc(-c3noc(CNC(=O)Cc4ccccc4)n3)ccc2o1 | 780 |
| COc1ccc(Cl)cc1N1CC(c2nc(-c3cc(OC)c(OC)c(OC)c3)no2)CC1=O (centres undefined) | 905 |
| OC[C@@H]1CN(Cc2ccncc2F)C[C@H]1c1nc(-c2cccnc2)no1 | 560 |
| Cc1ccc(NC(=O)CCc2nc(-c3ccc(N4CCCC4)cc3)no2)c(Br)c1 | 1170 |
| Cc1cc(C)cc(NC(=O)N2CCC(n3cnc4c(C)cccc4c3=O)CC2)c1 | 911 |
| CCCCOC(=O)c1ccc(NC(=O)c2cccn(Cc3cccc([N+](=O)[O-])c3)c2=O)cc1 | 1140 |
| Cc1ccc(Sc2nccnc2N2CCCC(C(=O)NCc3ccc(N(C)C)cc3)C2)cc1 (centres undefined) | 837 |
| COc1ccc(Br)c2c1-c1nc(NC(=O)c3cccc(C)c3)sc1C2 | 1140 |
| Cc1nn(-c2nc(-c3ccc(F)cc3)cs2)c(C)c1CC(=O)Nc1ccccc1Cl | 1230 |
| COc1cccc(-c2nc3cnccn3c2NCCC(=O)NC2CCCCC2)c1 | 710 |
| O=C(C1CCN(c2cnn(Cc3ccccc3)c(=O)c2)CC1)N1CCOCC1 | 661 |
| O=C(c1ccc(N2CCOCC2)nn1)N1CCN(c2cccc(C(F)(F)F)c2)CC1 | 779 |
| c1ccc2c(c1)nnn2-c1ccncc1 | 699 |
| Cc1ccc(NC(=O)C2CCN(S(=O)(=O)c3cn(C)cn3)CC2)cc1 | 701 |
| Cc1cc(=O)n(CC(=O)Nc2ccc(Br)cc2F)c(N2CCC(C)CC2)n1 | 750 |
| COc1ccc(Cc2nc3ccccc3n2CC(N)=O)cc1OC | 566 |
| Cc1c(Cl)cccc1NC(=O)CSc1ccc(N2CCCC(C(=O)NC3CC3)C2)nn1 (centres undefined) | 645 |
| CC1CCCN(c2nc(C(=O)NC(C)C)cs2)C1 (centres undefined) | 1020 |

| Structure (SMILES) | RP-LC retention time [s] |
| --- | --- |
| CCN1c2ccccc2C(=O)NC12CCN(C(=O)Nc1ccccc1C)CC2 | 731 |
| CN(C)c1nc2ncn3c(=O)n(CC(=O)Nc4cccc(F)c4)nc3c2s1 | 686 |
| COc1ccc(CCS(=O)(=O)NCC2CCN(Cc3ccccc3SC)CC2)cc1 | 598 |
| CS(=O)(=O)c1ccc(CC(=O)Nc2nnc(C3CCCO3)o2)cc1 (centres undefined) | 578 |
| COc1cccc(-n2ccc(=O)c(-c3nc(-c4ccc(F)cc4)no3)n2)c1 | 898 |
| CCOC(=O)N1CCc2c(sc(NC(=O)c3cn(C)nc3OC)c2C#N)C1 | 776 |
| Cc1nc2cc(-c3noc(-c4ccccc4Br)n3)ccc2o1 | 1140 |
| CCOC(=O)C1CCN(c2ncc(S(=O)(=O)c3ccccc3)c(N)n2)CC1 | 885 |
| CC(C)Cc1cc(-c2nn3c(-c4ccc(F)cc4)nnc3s2)n[nH]1 | 1010 |
| CC1CCc2c(sc3ncnc(SCC(=O)N4CCOCC4)c23)C1 (centres undefined) | 860 |
| CCC(=O)N1CCc2sc(S(=O)(=O)N3CCN(c4ccc(C)cc4)CC3)cc2C1 | 1000 |
| CN1CCC(NC(=O)c2cccc3c2CCN3C(=O)c2ccc(F)cc2)CC1 | 602 |
| CC(C)n1cnc(S(=O)(=O)N2CCCC(C(=O)Nc3ccc(F)cc3)C2)c1 (centres undefined) | 765 |
| O=C(CCc1nc(-c2ccc(N3CCCC3)cc2)no1)NCCC1=CCCCC1 | 1170 |
| O=C(NCCN1CCOCC1)c1cc2n(n1)CCCN(Cc1ccc(Cl)cc1)C2=O | 629 |
| O=C(CCc1ccccc1)N1CCOc2ccccc2C1 | 861 |
| O=c1ccn(-c2ccc(F)c(F)c2)nc1-c1nc(-c2ccccc2F)no1 | 863 |
| Cc1cc(C)c(S(=O)(=O)N2CCN(Cc3cccc(F)c3)C3(CCOCC3)C2)cc1C | 974 |
| O=c1ccc(-c2ccc3c(c2)OCO3)nn1CCc1nc(-c2cccc(Cl)c2)no1 | 1010 |
| Cc1cccc(OCC(=O)N2CCN(S(=O)(=O)c3c(C)nn(C(C)C)c3C)CC2)c1 | 904 |
| CCOC(=O)c1ccsc1NC(=O)c1cc(C)nn1CC | 1080 |

| Structure (SMILES) | RP-LC retention time [s] |
| --- | --- |
| O=C(COc1ccc(Cl)cc1Cl)NCc1ccsc1 | 920 |
| O=C(c1ccc(OCC2CCCN2C(=O)C2CCC2)cc1)N1CCCC1 (centres undefined) | 783 |
| COC(=O)c1ccc(NCc2cc(O)ccc2O)cc1 | 680 |
| CC(C)(C)NC(=O)N1CCC(CNC(=O)C(=O)Nc2cc(F)ccc2F)CC1 | 811 |
| CCCc1ccc(S(=O)(=O)N2CCC(C(=O)NCc3csc(-c4cccs4)n3)CC2)cc1 | 1050 |
| CCOC(=O)C1CCN(c2nc(=O)n(CC(=O)Nc3ccccc3C)c3ccccc23)CC1 | 790 |
| Cc1ccc(C(=O)CC2(O)C(=O)Nc3ccc(Cl)cc32)cc1C (centres undefined) | 772 |
| COc1ccc(-c2nnc(COc3cccc(NC(=O)c4ccccn4)c3)o2)cc1 | 941 |
| O=C(NCc1cccs1)c1cccc2cnccc12 | 589 |
| CN(C)c1ncncc1N1CCC(C(=O)N2CCN(c3ccc(Cl)cc3)CC2)CC1 | 692 |
| CC(C)Sc1ccc(CC(=O)NCC(C)(O)c2ccccc2)cc1 (centres undefined) | 841 |
| O=C(Nc1cccc(F)c1)N1CCCC1c1nc(-c2ccc(F)cc2F)no1 (centres undefined) | 998 |
| CC(C)S(=O)(=O)c1ccc(CC(=O)N2CCCC(c3nnc(C(F)(F)F)o3)C2)cc1 (centres undefined) | 750 |
| CCc1cc(C(=O)Nc2ccc(Cl)cc2)no1 | 997 |
| CCCNC(=O)c1cc(=O)[nH]c2ccc(F)cc12 | 635 |
| Cc1ccc(NC(=O)C2CCN(S(C)(=O)=O)c3ccccc3O2)cc1Cl (centres undefined) | 985 |
| COC(=O)c1c(C)[nH]c(C(=O)N2CCC(CC(=O)NCc3ccccc3C)CC2)c1C | 749 |
| Cn1nc(C(=O)Nc2ccc(F)cc2)c2c1-c1cc(Cl)ccc1SC2 | 1280 |
| O=C(Cn1c(=O)c2cccn2c2ccc(F)cc21)NC1CCCCC1 | 850 |
| COc1ccc(CNc2nc3ccncc3n(C(C)C)c2=O)cc1 | 652 |

Other lines, results leading:

| RP-LC retention time [s] | Structure (SMILES) |
| --- | --- |
| 780 | CCC1=C(c2ccc(C)cc2)S(=O)(=O)N=C1N1CCC(C(=O)N2CCOCC2)CC1 |
| 991 | CC1CCCN(C(=O)c2cc3c(s2)CCN(C(=O)c2ccc(Cl)cc2)C3)C1 (centres undefined) |
| 820 | O=c1n(CCOc2ccccc2)nc2c(S(=O)(=O)N3CCc4ccccc4C3)cccn12 |
| 879 | COc1ccc(N2C(=O)CN(Cc3ccccc3C)[C@H]3CS(=O)(=O)C[C@H]32)cc1Cl |
| 661 | O=C(c1ccc(Br)cc1)N1CCc2[nH]nc(C(=O)N3CCOCC3)c2C1 |
| 588 | CNC(=O)c1cc(=O)[nH]c2c(C)cccc12 |
| 684 | CC(C)NC(=O)c1ccc(-c2nc3cc(NS(=O)(=O)c4ccc(F)cc4)ccc3n2C)cc1 |
| 643 | CCOC(=O)CC1(NC(=O)N2CCCn3nc(-c4cccnc4)cc3C2)CCCCC1 |
| 764 | COc1ccc(CNC(=O)Cn2c(C(F)(F)F)nc3cc4c(cc32)OCCO4)cc1OC |
| 958 | Cc1nn(C)c2nc(OCC(=O)N3CCCCCC3)cc(C(F)(F)F)c12 |
| 630 | Cc1nnc(NC(=O)Cn2cnc(-c3cccs3)cc2=O)s1 |
| 833 | CCc1noc(-c2c(S(=O)(=O)NC3CCCC3)c(C)n(C)c2C)n1 |
| 911 | Cc1ccc(N2CC(c3nc(-c4ccc5c(c4)OCO5)no3)CC2=O)c(C)c1 (centres undefined) |
| 642 | CC1CCCCN1CCCN1C(=O)c2ccccc2C1C(=O)NC1CCCCC1 (centres undefined) |
| 654 | COc1ccccc1OCCNS(=O)(=O)c1cc2n(c1)CCCNC2=O |
| 790 | Cc1nc2cc(N3CCC(C(=O)Nc4ccc(Cl)cc4)CC3)cnc2nc1C |
| 1290 | Cc1ccccc1Oc1nccnc1N1CCCC(C(=O)NCc2cccc(Br)c2)C1 (centres undefined) |
| 590 | O=C(NC1CCCCCC1)C1c2ccccc2C(=O)N1Cc1cccnc1 (centres undefined) |
| 904 | CC1CCN(C(=O)C2=NN(Cc3nc(C4CC4)no3)c3ccccc3S2(=O)=O)CC1 |
| 768 | Cc1ccc(-c2noc(C3CC3)n2)cc1S(=O)(=O)N1CCC(C(=O)Nc2ncccc2C)CC1 |
| 1280 | O=C(Nc1cc(F)ccc1F)c1cc2sccc2n1Cc1ccc(Cl)cc1 |
| 970 | COC(=O)c1cc(OCC(=O)Nc2cc(Cl)ccc2OC)c2cc(OC)ccc2n1 |
| 786 | Oc1cccc(-c2nc3cnc(Br)cn3c2Nc2ccc3c(c2)OCO3)c1 |
| 567 | CN1CCCC1c1nc(C2CN(C(=O)c3ccsc3)C2)no1 (centres undefined) |
| 869 | Cc1ccc(Sc2ccccc2N2CCNCC2)c(C)c1 |
| 1090 | Cc1ccc2c(c1)N(S(C)(=O)=O)CCC(C(=O)Nc1ccc(Br)c(C)c1)O2 (centres undefined) |
| 1100 | Cc1ccc(N2C(=O)N(Cc3ccccc3)S(=O)(=O)c3cccnc32)cc1F |
